pIC50: −log10 of the molar value. “And” between values parts separate entries of the source, which are not always exact repeats. Identical values can stand only once. Like-named read-outs stand apart in the source and are kept apart here.
Tests used:
SARS-CoV-2 PLpro = SARS-CoV-2 PLpro (Severe acute respiratory syndrome coronavirus 2, UniProt P0DTD1); assay: biochemical; set-up: inhibition of SARS-CoV-2 PLpro, UbRh dose-response replicate value: unit: %
MERS-CoV PLpro = MERS-CoV PLpro (Middle East respiratory syndrome-related coronavirus, UniProt K9N7C7); format: biochemical; set-up: unit: %
Sequence of MERS-CoV PLpro (K9N7C7 1482-1803 limits assumed): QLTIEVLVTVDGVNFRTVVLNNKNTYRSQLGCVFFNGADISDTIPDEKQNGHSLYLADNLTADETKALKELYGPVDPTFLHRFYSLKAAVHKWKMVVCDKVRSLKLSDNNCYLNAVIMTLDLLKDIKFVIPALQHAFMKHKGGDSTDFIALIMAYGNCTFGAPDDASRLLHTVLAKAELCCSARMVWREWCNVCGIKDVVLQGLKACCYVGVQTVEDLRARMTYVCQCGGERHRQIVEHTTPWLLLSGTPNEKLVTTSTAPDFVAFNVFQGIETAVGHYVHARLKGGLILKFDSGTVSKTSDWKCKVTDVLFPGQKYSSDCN

OC43 PLpro = OC43 PLpro (Human coronavirus OC43, UniProt P0C6X6); format: biochemical; set-up: unit not given here
Sequence of OC43 PLpro (P0C6X6 1561-1872 limits assumed): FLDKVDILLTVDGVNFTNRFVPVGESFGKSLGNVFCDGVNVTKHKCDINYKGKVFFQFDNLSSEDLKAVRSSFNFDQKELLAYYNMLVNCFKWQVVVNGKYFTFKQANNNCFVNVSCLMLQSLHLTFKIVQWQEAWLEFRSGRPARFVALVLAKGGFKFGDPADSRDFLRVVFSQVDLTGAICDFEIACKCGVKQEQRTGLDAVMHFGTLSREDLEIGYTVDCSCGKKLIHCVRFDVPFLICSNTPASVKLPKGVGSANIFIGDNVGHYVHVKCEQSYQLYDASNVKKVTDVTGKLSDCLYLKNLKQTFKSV

SARS-CoV PLpro = SARS-CoV PLpro (Severe acute respiratory syndrome coronavirus, UniProt P0C6X7); assay: biochemical; set-up: inhibition of SARS-CoV PLpro, UbRh dose-response replicate value: unit: %
USP21 = USP21 (Homo sapiens, UniProt Q9UK80); format: biochemical
Sequence of USP21 (Q9UK80 whole entry): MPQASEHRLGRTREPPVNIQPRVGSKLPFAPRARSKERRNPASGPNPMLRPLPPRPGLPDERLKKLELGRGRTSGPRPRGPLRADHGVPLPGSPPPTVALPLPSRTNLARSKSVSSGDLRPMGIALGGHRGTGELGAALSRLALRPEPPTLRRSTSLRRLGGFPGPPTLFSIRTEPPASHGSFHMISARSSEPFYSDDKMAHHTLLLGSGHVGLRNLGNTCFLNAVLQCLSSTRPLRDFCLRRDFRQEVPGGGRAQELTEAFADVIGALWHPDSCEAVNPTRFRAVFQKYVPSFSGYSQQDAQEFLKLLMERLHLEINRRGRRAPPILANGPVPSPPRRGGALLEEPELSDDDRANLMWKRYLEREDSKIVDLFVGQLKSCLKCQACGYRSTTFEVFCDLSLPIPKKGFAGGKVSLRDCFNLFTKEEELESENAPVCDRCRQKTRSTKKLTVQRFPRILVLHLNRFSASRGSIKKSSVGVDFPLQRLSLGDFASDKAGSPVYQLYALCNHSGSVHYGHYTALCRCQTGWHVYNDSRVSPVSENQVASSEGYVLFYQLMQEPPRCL

CO/N=C(/c1ccc2cc(OC)ccc2c1)[C@@H]1CCCN([C@H]2CC[C@@H](O)CC2)C1 [WEHI-P4]
inhibition at 1.63 µM (SARS-CoV-2 PLpro; Conc 1.63 µM, read-out: inhibition of SARS-CoV-2 PLpro, UbRh dose-response replicate value): 99.9%
inhibition of SARS-CoV-2 PLpro, UbRh dose-response replicate value (SARS-CoV-2 PLpro; Conc 1.64 µM): 100.528 and 98.3984 and 97.5602
inhibition at 1.64 µM (SARS-CoV-2 PLpro; Conc 1.64 µM, read-out: inhibition of SARS-CoV-2 PLpro, UbRh dose-response replicate value): 101%
inhibition of SARS-CoV-2 PLpro, UbRh dose-response replicate value (SARS-CoV-2 PLpro; Conc 3.63 µM): 107.19 and 107.537 and 118.551
inhibition at 3.63 µM (SARS-CoV-2 PLpro; Conc 3.63 µM, read-out: inhibition of SARS-CoV-2 PLpro, UbRh dose-response replicate value): 108%
inhibition of SARS-CoV-2 PLpro, UbRh dose-response replicate value (SARS-CoV-2 PLpro; Conc 4.9 µM): 99.5845 and 98.2639 and 99.0831 and 98.0118 and 99.4255 and 97.4945 and 99.077
inhibition at 4.9 µM (SARS-CoV-2 PLpro; Conc 4.9 µM, read-out: inhibition of SARS-CoV-2 PLpro, UbRh dose-response replicate value): 99.1%
inhibition of SARS-CoV-2 PLpro, UbRh dose-response replicate value (SARS-CoV-2 PLpro; Conc 98 µM): 106.984 and 107.551 and 120.253
inhibition at 98 µM (SARS-CoV-2 PLpro; Conc 98 µM, read-out: inhibition of SARS-CoV-2 PLpro, UbRh dose-response replicate value): 107%
pIC50 (SARS-CoV-2 PLpro; IC50 (UbRh) SARS-CoV-2 PLpro, Supplementary Fig. 2b): 7.49
inhibition at […] (SARS-CoV-2 PLpro; read-out: inhibition of SARS-CoV-2 PLpro, UbRh dose-response replicate value): 93.6% and 81.4% and 107% (2×) and 108% and 105% and 99.2% and 92.6%
inhibition of MERS-CoV PLpro, UbRh dose-response replicate value (MERS-CoV PLpro): -2.626 and 0.2924 and -2.097 and -1.6716 and -0.7294 and -2.565 and -2.287 and 0.1452 and -3.504 and -2.889 and 1.578 and -2.541 and -3.292 and -3.12 and -0.8701 and -1.654 and -2.848 and 0.1888 and -1.626
inhibition of MERS-CoV PLpro, UbRh dose-response replicate value (MERS-CoV PLpro; Conc 0.00498 µM): 2.537 and 1.088 and 4.818 and -0.3578
inhibition of MERS-CoV PLpro, UbRh dose-response replicate value (MERS-CoV PLpro; Conc 0.0149 µM): 0.4714 and 1.45 and -3.026 and -3.057
inhibition of MERS-CoV PLpro, UbRh dose-response replicate value (MERS-CoV PLpro; Conc 0.0448 µM): 0.04351 and -1.536 and 0.7971 and -3.294
inhibition of MERS-CoV PLpro, UbRh dose-response replicate value (MERS-CoV PLpro; Conc 3.63 µM): -1.9557 and -1.916 and -5.199 and -5.618
inhibition of MERS-CoV PLpro, UbRh dose-response replicate value (MERS-CoV PLpro; Conc 98 µM): -3.229 and -4.988 and -1.6159 and -4.525
inhibition of OC43 PLpro, UbRh dose-response replicate value (OC43 PLpro): -2.257 and 2.5807 and 4.868 and -0.1188 and -1.486 and 1.4475 and 10.2923 and 5.639 and 2.747 and 1.253 and 10.74 and 6.439 and 0.2359 and 1.058 and 1.648 and 0.7875 and 3.338 and 4.936 and 12.7203 and 5.2479
inhibition of OC43 PLpro, UbRh dose-response replicate value (OC43 PLpro; Conc 0.00498 µM): -1.019 and 4.2451 and 4.799 and 3.755
inhibition of OC43 PLpro, UbRh dose-response replicate value (OC43 PLpro; Conc 0.0149 µM): 3.285 and -5.104 and 7.176 and 0.6631
inhibition of OC43 PLpro, UbRh dose-response replicate value (OC43 PLpro; Conc 0.0448 µM): 1.599 and 3.82 and 6.435 and 3.684
inhibition of OC43 PLpro, UbRh dose-response replicate value (OC43 PLpro; Conc 3.63 µM): -4.48 and 0.0664 and 5.368 and 1.321
inhibition of OC43 PLpro, UbRh dose-response replicate value (OC43 PLpro; Conc 98 µM): 8.342 and 5.591 and 3.318 and 3.826
pIC50 (SARS-CoV PLpro): 7.66
inhibition of SARS-CoV PLpro, UbRh dose-response replicate value (SARS-CoV PLpro): 99.5179 and 99.8695 and 99.888 and 100.41 and 101.206 and 100.652 and 97.9154 and 99.4293 and 98.8906 and 95.7801 and 96.2197 and 96.0782 and 88.7276 and 90.1243 and 89.7578
inhibition of SARS-CoV PLpro, UbRh dose-response replicate value (SARS-CoV PLpro; Conc 0.00498 µM): 14.7599 and 17.411 and 20.7686
inhibition at 0.00498 µM (SARS-CoV PLpro; Conc 0.00498 µM, read-out: inhibition of SARS-CoV PLpro, UbRh dose-response replicate value): 16.2%
inhibition of SARS-CoV PLpro, UbRh dose-response replicate value (SARS-CoV PLpro; Conc 0.0149 µM): 37.3989 and 38.0308 and 36.4129
inhibition at 0.0149 µM (SARS-CoV PLpro; Conc 0.0149 µM, read-out: inhibition of SARS-CoV PLpro, UbRh dose-response replicate value): 35.6%
inhibition of SARS-CoV PLpro, UbRh dose-response replicate value (SARS-CoV PLpro; Conc 0.0448 µM): 69.6451 and 70.3349 and 71.2781
inhibition at 0.0448 µM (SARS-CoV PLpro; Conc 0.0448 µM, read-out: inhibition of SARS-CoV PLpro, UbRh dose-response replicate value): 67.2%
inhibition of SARS-CoV PLpro, UbRh dose-response replicate value (SARS-CoV PLpro; Conc 3.63 µM): 99.5331 and 99.9857 and 99.4982
inhibition at 3.63 µM (SARS-CoV PLpro; Conc 3.63 µM, read-out: inhibition of SARS-CoV PLpro, UbRh dose-response replicate value): 99.4%
inhibition of SARS-CoV PLpro, UbRh dose-response replicate value (SARS-CoV PLpro; Conc 98 µM): 99.3819 and 99.8238 and 100.106
inhibition at 98 µM (SARS-CoV PLpro; Conc 98 µM, read-out: inhibition of SARS-CoV PLpro, UbRh dose-response replicate value): 99.7%
inhibition at […] (SARS-CoV PLpro; read-out: inhibition of SARS-CoV PLpro, UbRh dose-response replicate value): 100% (2×) and 98.8% and 95.9% and 88.8%
inhibition of USP21, UbRh dose-response replicate value (USP21): -14.237 and -11.9773 and -10.1399 and -17.0381 and -16.4868 and -21.6825 and -18.261 and -18.781 and -13.7423 and -13.1772 and -6.117 and -6.284 and -18.5884 and -21.057 and -7.715 and -13.3224
inhibition of USP21, UbRh dose-response replicate value (USP21; Conc 0.000249 µM): -14.4284 and -17.3988 and 5.209 and -15.2664
inhibition of USP21, UbRh dose-response replicate value (USP21; Conc 0.000745 µM): -25.0632 and -19.3083 and -9.965 and -17.0572
inhibition of USP21, UbRh dose-response replicate value (USP21; Conc 0.00675 µM): -16.8226 and -16.7878 and -5.942 and -9.8797
inhibition of USP21, UbRh dose-response replicate value (USP21; Conc 0.545 µM): -6.303 and -14.0881 and -12.3002 and -21.4576
inhibition of USP21, UbRh dose-response replicate value (USP21; Conc 1.64 µM): -4.137 and -7.939 and -11.2839 and -6.868
inhibition of USP21, UbRh dose-response replicate value (USP21; Conc 4.9 µM): -8.882 and -9.138

— publication PMC11969009 (Nature Communications, 2025)
